Marks after values point to notes of the source that are not given here.
Experiments:
Format in all cases: cell-based, Staphylococcus aureus
S. aureus = assay: Antibacterial activity assay with LED light
Procedure: Antibacterial activity assay general protocol: Used LED light to test conditions. Bacteria were grown in TS broth, followed by 3 mM bipyridine in TS broth until log phase. Bacteria were then diluted with PBS, to OD 0.1 (˜10^) and then to ˜10^7 cfu/mL. 100 uL of bacteria were placed in 96 well plates with the appropriate GaPpIX concentration. 2× serial dilutions were then done to obtain other GaPpIX concentrations. Each concentration was done in triplicate. Bacteria were left incubating and irradiating for different amount of times at different light powers or left in the dark. 10× Serial dilutions were done and bacteria were plated for colony counting using the drop-plate technique. Colonies were counted after 24 hours. As reported herein, a 3-log reduction equals measurable antimicrobial action; a 6-log reduction equals total eradication.
Stock solution preparation (AVM-3-36, 10 nm AgNP). Prepared a solution of (AVM-2-273) GaPpIX-apoHb 1 mg/mL in MP H2O, deaerated. Took 10 mL of 10 nm AgNPs, centrifuged at 900 G for 5 min (Beckman, 3100 RPM), took supernantant and added 200 uL of GaPpIXHb. After overnight, centrifuged 3000 RPM g for 5 minutes (Beckman). Took supernantant and centrifuged using a 100 K CentriCon tube at 4000 RPM for 5 minutes, 3×. Added 15 mM borate buffer to NPs. Based on calibration curve, the stock solution is 1.94 ug/mL AgNP, so stock: 79 μg/mL AgNP, 10.37 μg/mL GaPpIXHb, 0.446 μg/mL GaPpIX (refer to AVM-2-293A and AVM-3-3).
The following antibacterial activity measurements were assayed in the presence of AgNP.

[1] = system: MRSA (USA200), clinical isolate NRS 383; assay: aPDI with CFL irradiation (406 nm), planktonic bacteria, drop-plate colony count; settings: for potency relative to dark toxicity (0 min exposure): 15 min CFL, 3-log reduction
Procedure: (§1) In all cases, we observed potent aPDI with bactericidal activities at 1-5 μM (Table 1). The consistent response to Ga-PpIX treatment is encouraging, as variable efficacy between strains is a known problem in antimicrobial photodynamic therapy (Nakonieczna, J. et al., Photodiagn. Photodyn. Ther. 2012, 9, 359-361). […] We note that PpIX is already approved as a photosensitizer for topical treatment of several skin diseases, but its utility is limited by poor photostability.
(§2) All bacterial strains were cultured at 37° C. in an aerobic atmosphere unless otherwise noted. […] Bacterial counts were estimated in units of cfu/mL by plating serial dilutions onto agar plates, followed by incubation for 16 hours at 37° C. Iron-challenged conditions were typically achieved by first growing the bacteria in standard (iron-replete) media (see Table 2), then harvesting and resuspending in media containing 3 mM 2,2′-bipyridine. Further details and variations on iron-deficient culture conditions are provided in Supporting Information.
(§3) A 20-W compact fluorescent lightbulb (CFL; Sunlite SL20/BLB) housed in an ellipsoidal reflector dome was used for aPDI, at an emission wavelength at 406 nm and a mean power density of 12.4 mW/cm^2 (after applying a 408-nm shortpass filter). Antimicrobial assays were performed on planktonic bacteria at 10^7 cfu/mL with variable exposure times to CFL irradiation, followed by plating on agar and incubation at 37° C. In a typical experiment, bacterial suspensions were transferred into 96-well plates then treated with 100-μL aliquots of Ga-PpIX or PpIX solution, with final concentrations ranging from 320 to 0.31 μg/mL, followed immediately with CFL irradiation for 5 to 15 minutes. The irradiated bacteria were plated onto agar in serial tenfold dilutions (10^7-10^1 cfu/mL); controls included one set of wells without photosensitizer, and one set of wells with photosensitizer but without 15 min irradiation, prior to plating (dark toxicity). Bacterial counts were determined by the drop-plate method using TS-agar plates, and reported in colony-forming units per milliliter (cfu/mL).
(§4) The irradiation source consisted of a 20-W compact fluorescent lightbulb (CFL; Sunlite SL20/BLB) housed in an ellipsoidal reflector dome. Emission spectra were measured with an Acton SpectraPro 2300i spectrometer (1200 gratings/inch), with major peaks at 406 and 438 nm and a minor peak at 548 nm (FIG. 10). Irradiance was measured with a handheld luminometer (Lux/FC HS1010A) positioned 4 cm from the CFL, yielding 91 lux or an average power density of 36.4 mW/cm^2; addition of a 425-nm or 408-nm shortpass filter yielded 31 lux or 12.4 mW/cm^2 corresponding with emission at 406 nm. The CFL produced only minor increases in temperature within the dome (28° C. after 15 min).

[2] = system: MRSA (USA500), clinical isolate NRS 385; assay: as above; settings: for potency relative to dark toxicity (0 min exposure): 15 min CFL, 3-log reduction
Procedure: as §1, §2, §3, §4

[3] = system: MRSA (USA800), clinical isolate NRS 387; assay: as above; settings: for potency relative to dark toxicity (0 min exposure): 15 min CFL, 3-log reduction
Procedure: as §1, §2, §3, §4

[4] = system: MRSA (USA700), clinical isolate NRS 386; assay: as above; settings: for potency relative to dark toxicity (0 min exposure): 15 min CFL, 3-log reduction
Procedure: as §1, §2, §3, §4

[5] = 0 min (dark), no irradiation (dark toxicity)
[6] = 0 min (dark), no irradiation (dark toxicity), listed as PpIX
[7] = 0 min (dark), no irradiation (dark toxicity), listed as Ga-

Compound | concentration for 3-log reduction (measurable antimicrobial action) (S. aureus) | concentration for 6-log reduction (total eradication) (S. aureus) | Antimicrobial activity (minimum 3-log CFU reduction) [1, 5] | Eradication (6 log reduction) ([1]; 15 min CFL (11.2 J/cm^2)) | potency relative to dark toxicity (0 min exposure) [1] | Eradication (6 log reduction) ([1]; No irradiation (dark toxicity)) | Antimicrobial activity (minimum 3-log CFU reduction) [2, 5] | Antimicrobial activity (minimum 3-log CFU reduction) ([2]; 15 min CFL (11.2 J/cm^2)) | Eradication (6 log reduction) ([2]; 15 min CFL (11.2 J/cm^2)) | potency relative to dark toxicity (0 min exposure) [2] | Eradication (6 log reduction) ([2]; No irradiation (dark toxicity)) | Antimicrobial activity (minimum 3-log CFU reduction) [3, 5] | Antimicrobial activity (minimum 3-log CFU reduction) ([3]; 15 min CFL (11.2 J/cm^2)) | Eradication (6 log reduction) ([3]; 15 min CFL (11.2 J/cm^2)) | potency relative to dark toxicity (0 min exposure) [3] | Eradication (6 log reduction) ([3]; No irradiation (dark toxicity)) | Antimicrobial activity (minimum 3-log CFU reduction) [4, 5] | Antimicrobial activity (minimum 3-log CFU reduction) ([4]; 15 min CFL (11.2 J/cm^2)) | Eradication (6 log reduction) ([4]; 15 min CFL (11.2 J/cm^2)) | potency relative to dark toxicity (0 min exposure) [4] | also measured
C=CC1=C(C)c2cc3[nH]c(cc4nc(cc5[nH]c(cc1n2)c(C)c5CCC(=O)O)C(CCC(=O)O)=C4C)c(C)c3C=C [PpIX (2), PpIX, reference compound] | 940 nM | 1900 nM | 36.3 μM | 4.6 μM | 32x | 146 μM | >146 μM | 18.3 μM | 36.3 μM | >8x | >146 μM | >146 μM | 9.1 μM | 18.3 μM | 16x | >146 μM | >146 μM | 36.3 μM | 73 μM | >4x | Antimicrobial activity (minimum 3-log CFU reduction) ([1]; 15 min CFL (11.2 J/cm^2)): 1.1 μM; Antimicrobial activity (minimum 3-log CFU reduction) ([1]; 15 min CFL (11.2 J/cm^2), listed as PpIX): 1.1^c μM; Antimicrobial activity (minimum 3-log CFU reduction) [2, 6]: >146^d μM; Antimicrobial activity (minimum 3-log CFU reduction) [3, 6]: 146 μM; Antimicrobial activity (minimum 3-log CFU reduction) [4, 6]: >146^d μM; Eradication (6 log reduction) ([4]; No irradiation (dark toxicity)): >146 μM
Ga(III)-protoporphyrin [Ga-PpIX (1)] | 59 nM | 235 nM | 36.3 μM | 2.3 μM | 32x | 73 μM | >146 μM | 4.6 μM | 36.3 μM | >32x | >146 μM | 73 μM | 1.1 μM | 2.3 μM | 64x | 146 μM | >146 μM | 4.6 μM | 18.3 μM | >32x | Antimicrobial activity (minimum 3-log CFU reduction) ([1]; 15 min CFL (11.2 J/cm^2), listed as Ga-): 1.1^c μM; Antimicrobial activity (minimum 3-log CFU reduction) ([1]; 15 min CFL (11.2 J/cm^2), listed as GaPpIX (1)): 1.1 μM; Antimicrobial activity (minimum 3-log CFU reduction) [2, 7]: >146^d μM; Antimicrobial activity (minimum 3-log CFU reduction) [4, 7]: >146^d μM; Eradication (6 log reduction) ([4]; No irradiation (dark toxicity)): >146 μM

Source: patent publication US10722582B2, “Targeted antimicrobial photodynamic therapy” (Purdue Research Foundation, priority 2018, dated 2020)
